Data from patent publication US8945540B2, “Compositions for enhancing the antibacterial activity of myeloperoxidase and methods of use thereof” (Exoxemis, Inc., priority 2008, dated 2015).
Where two headings read alike, the source gives them in different places.

What was measured:
Staphylococcus aureus [1] = assay: Control: microbicidal activity of the amino acid or analogue alone (no glucose, MPO, glucose oxidase) in the presence of blood; assay type: cell-based; conditions: for log reduction at 5000 µM: Staphylococcus aureus, 1 h, read-out: Log Reduction 60 min
Text: As a control to determine the microbicidal activity of the amino acids alone, the foregoing procedure was followed without replication, except in the absence of glucose, MPO, and glucose oxidase.

Staphylococcus aureus [2] = assay: Microbicidal activity of the myeloperoxidase system (p-MPO, glucose oxidase, glucose) with amino acids in the presence of blood, CFU plate counts; synergy determination from these CFU; assay type: cell-based; conditions: for Average Viability CFU/ml 50 min / Log Reduction 50 min: MPO 4.7 U/ml, GO 4.2 U/ml
Method in brief: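 Staphylococcus aureus grown 24 hours in TSB at 35° C was washed in saline and added at a final 2-3×10^7 CFU per mL. The bacteria were mixed in 1 mL reactions with porcine myeloperoxidase, glucose oxidase, amino acids, 150 mM sodium chloride and 3% venous whole blood. Adding glucose to 150 mM started killing. After catalase addition, survivors were counted by serial dilution plating on TSA at 37° C for 24 hours.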

[3] = amino acid analogue alone 5 mM, MPO 0, GO 0, no glucose, blood
[4] = Table 7, amino acid analogue 5 mM, MPO 38 U/ml, GO 33.3 U/ml, blood
[5] = amino acid alone 5 mM, MPO 0, GO 0, no glucose, blood, without replication
[6] = Table 3, amino acid 5 mM (none: 0 mM), MPO 38 U/ml, GO 33.3 U/ml, blood
[7] = MPO 100 μg/mL, AA 20 mM, 30 min
[8] = MPO 100 μg/mL, AA 20 mM, 60 min
[9] = Table 2, amino acid 5 mM (none: 0 mM), MPO 38 U/ml, GO 33.3 U/ml, blood
[10] = Table 10, single amino acid 2.5 mM, in the presence of blood, 50 min
[11] = Table 13, single amino acid 2.5 mM, in the presence of blood, 50 min
[12] = Table 14, single amino acid 2.5 mM, in the presence of blood, 50 min
[13] = Table 4, amino acid 5 mM (none: 0 mM), MPO 38 U/ml, GO 33.3 U/ml, blood
[14] = Table 5, amino acid 5 mM (none: 0 mM), MPO 38 U/ml, GO 33.3 U/ml, blood
[15] = Table 11, single amino acid 2.5 mM, in the presence of blood, 50 min
[16] = Table 19, amino acid (racemic, L- or D-form) 2.5 mM, 50 min
[17] = single amino acid 2.5 mM, blood

| SMILES | log reduction at 5000 µM (Staphylococcus aureus [1]; [5]) | Average Viability CFU/ml 60 min (Staphylococcus aureus [1]; [5]) | Log 10 (CFU + 1) Survivors (Staphylococcus aureus [2]; MPO 25 μg/mL, AA 5 mM, 30 min) | Log 10 (CFU + 1) Survivors (Staphylococcus aureus [2]; MPO 25 μg/mL, AA 5 mM, 60 min) | Log 10 (CFU + 1) Survivors (Staphylococcus aureus [2]; MPO 25 μg/mL, AA […], 30 min) | Log 10 (CFU + 1) Survivors (Staphylococcus aureus [2]; MPO 25 μg/mL, AA […], 60 min) | Log 10 (CFU + 1) Survivors (Staphylococcus aureus [2]; MPO 100 μg/mL, AA 5 mM, 30 min) | Log 10 (CFU + 1) Survivors (Staphylococcus aureus [2]; MPO 100 μg/mL, AA 5 mM, 60 min) | Log 10 (CFU + 1) Survivors (Staphylococcus aureus [2]; [7]) | Log 10 (CFU + 1) Survivors (Staphylococcus aureus [2]; [8]) | Average Viability CFU/ml 50 min (Staphylococcus aureus [2]; [10]) | Log Reduction 50 min (Staphylococcus aureus [2]; [10]) | further results |
| --- | --- | --- | --- | --- | --- | --- | --- | --- | --- | --- | --- | --- | --- |
| CCOC(=O)CCN.Cl [Beta-Alanine ethyl ester hydrochloride] |  |  |  |  |  |  |  |  |  |  |  |  | log reduction at 5000 µM (Staphylococcus aureus [1]): 0; Average Viability CFU/ml 60 min (Staphylococcus aureus [1]; [3]): 23100000 CFU/ml; Average Viability CFU/ml 60 min (Staphylococcus aureus [2]; [4]): 1195000 CFU/ml; Log Reduction 60 min (Staphylococcus aureus [2]; [4]): 1.3 |
| NC(=O)C[C@H](N)C(=O)O [L-Asparagine] | 0 | 21800000 CFU/ml |  |  |  |  |  |  |  |  |  |  | Average Viability CFU/ml 60 min (Staphylococcus aureus [2]; [6]): 5950000 CFU/ml; Log 10 (CFU + 1) Survivors 60 min (Staphylococcus aureus [2]; [6]): 6.8; Log Reduction 60 min (Staphylococcus aureus [2]; [6]): 0.6 |
| N[C@@H](CO)C(=O)O [L-Serine] | 0 | 24100000 CFU/ml | 5.0 | 0.0 | 6.8 | 1.8 | 5.0 | 0.0 | 5.8 | 0.0 | 1175000 CFU/ml | 1.3 | Average Viability CFU/ml 60 min (Staphylococcus aureus [2]; [9]): 0 CFU/ml; Log 10 (CFU + 1) Survivors 60 min (Staphylococcus aureus [2]; [9]): 0.0; Log Reduction 60 min (Staphylococcus aureus [2]; [9]): 7.4; Average Viability CFU/ml 50 min (Staphylococcus aureus [2]; [11]): 835000 CFU/ml; Log Reduction 50 min (Staphylococcus aureus [2]; [11]): 1.5; Average Viability CFU/ml 50 min (Staphylococcus aureus [2]; [12]): 940000 CFU/ml; Log Reduction 50 min (Staphylococcus aureus [2]; [12]): 1.5 |
| COC(=O)[C@H](C)N [L-Ala methyl ester, L-Alanine methyl ester] | 0 | 24300000 CFU/ml | 7.3 | 0.0 | 7.3 | 0.0 | 0.0 | 0.0 | 0.0 | 0.0 | 7250000 CFU/ml | 0.5 | Average Viability CFU/ml 60 min (Staphylococcus aureus [2]; [13]): 0 CFU/ml; Log Reduction 60 min (Staphylococcus aureus [2]; [13]): 7.4 |
| O=C(O)c1cccnc1 [Nicotinic acid] | 0 | 23200000 CFU/ml |  |  |  |  |  |  |  |  |  |  | Average Viability CFU/ml 60 min (Staphylococcus aureus [2]; [6]): 4150000 CFU/ml; Log 10 (CFU + 1) Survivors 60 min (Staphylococcus aureus [2]; [6]): 6.6; Log Reduction 60 min (Staphylococcus aureus [2]; [6]): 0.7 |
| CC(CN)C(=O)O (racemic) [DL-3-Aminoisobutyric acid] |  |  |  |  |  |  |  |  |  |  |  |  | Average Viability CFU/ml 60 min (Staphylococcus aureus [1]; [3]): 24200000 CFU/ml; Log Reduction 60 min (Staphylococcus aureus [1]; [3]): 0.0; Average Viability CFU/ml 60 min (Staphylococcus aureus [2]; [4]): 0 CFU/ml; Log Reduction 60 min (Staphylococcus aureus [2]; [4]): 7.4 |
| CSCC[C@H](N)C(=O)O [L-Methionine] | 0.1 | 19800000 CFU/ml |  |  |  |  |  |  |  |  |  |  | Average Viability CFU/ml 60 min (Staphylococcus aureus [2]; [9]): 6600000 CFU/ml; Log 10 (CFU + 1) Survivors 60 min (Staphylococcus aureus [2]; [9]): 6.8; Log Reduction 60 min (Staphylococcus aureus [2]; [9]): 0.6 |
| O=CC(=O)O [Glyoxylic acid] | 0.1 | 22200000 CFU/ml |  |  |  |  |  |  |  |  |  |  | Average Viability CFU/ml 60 min (Staphylococcus aureus [2]; [13]): 610000 CFU/ml; Log Reduction 60 min (Staphylococcus aureus [2]; [13]): 1.6 |
| O=C(O)[C@@H]1CCCN1 [L-Proline] | 0 | 21600000 CFU/ml | 7.1 | 3.9 | 7.0 | 6.8 | 4.9 | 0.0 | 5.8 | 0.0 | 1235000 CFU/ml | 1.3 | Average Viability CFU/ml 60 min (Staphylococcus aureus [2]; [9]): 4850 CFU/ml; Log 10 (CFU + 1) Survivors 60 min (Staphylococcus aureus [2]; [9]): 3.7; Log Reduction 60 min (Staphylococcus aureus [2]; [9]): 3.7; Average Viability CFU/ml 50 min (Staphylococcus aureus [2]; [11]): 1500000 CFU/ml; Log Reduction 50 min (Staphylococcus aureus [2]; [11]): 1.2; Average Viability CFU/ml 50 min (Staphylococcus aureus [2]; [12]): 1835000 CFU/ml; Log Reduction 50 min (Staphylococcus aureus [2]; [12]): 1.2 |
| CC(C)CC(N)CC(=O)O (racemic) [DL-Beta-homoleucine] |  |  |  |  |  |  |  |  |  |  |  |  | log reduction at 5000 µM (Staphylococcus aureus [1]; [3]): 0; Average Viability CFU/ml 60 min (Staphylococcus aureus [1]; [3]): 20500000 CFU/ml; Average Viability CFU/ml 60 min (Staphylococcus aureus [2]; [4]): 0 CFU/ml; Log Reduction 60 min (Staphylococcus aureus [2]; [4]): 7.4 |
| CNCC(=O)OC.Cl [Sarcosine methyl ester hydrochloride] |  |  |  |  |  |  |  |  |  |  |  |  | log reduction at 5000 µM (Staphylococcus aureus [1]; [3]): 0; Average Viability CFU/ml 60 min (Staphylococcus aureus [1]; [3]): 23200000 CFU/ml; Average Viability CFU/ml 60 min (Staphylococcus aureus [2]; [4]): 0 CFU/ml; Log Reduction 60 min (Staphylococcus aureus [2]; [4]): 7.4 |
| NC(=O)CC[C@@H](N)C(=O)O [D-Glutamine] | 0.1 | 20500000 CFU/ml | 7.3 | 7.0 | 7.2 | 7.0 | 5.0 | 0.0 | 6.8 | 4.0 | 14750000 CFU/ml | 0.2 | Average Viability CFU/ml 60 min (Staphylococcus aureus [2]; [14]): 18 CFU/ml; Log Reduction 60 min (Staphylococcus aureus [2]; [14]): 6.1; Average Viability CFU/ml 50 min (Staphylococcus aureus [2]; [15]): 15500000 CFU/ml; Log Reduction 50 min (Staphylococcus aureus [2]; [15]): 0.2; Average Viability CFU/ml 50 min (Staphylococcus aureus [2]; [12]): 15050000 CFU/ml; Log Reduction 50 min (Staphylococcus aureus [2]; [12]): 0.3 |
| N=C(N)NCCC[C@@H](N)C(=O)O [D-Arginine] |  | 21500000 CFU/ml | 6.9 | 6.7 | 7.0 | 5.9 | 6.9 | 0.0 | 7.0 | 6.8 | 14200000 CFU/ml | 0.2 | log reduction at 5000 µM (Staphylococcus aureus [1]): 0.1; Average Viability CFU/ml 60 min (Staphylococcus aureus [2]; [14]): 0 CFU/ml; Log Reduction 60 min (Staphylococcus aureus [2]; [14]): 7.4; Average Viability CFU/ml 50 min (Staphylococcus aureus [2]; [15]): 14650000 CFU/ml; Log Reduction 50 min (Staphylococcus aureus [2]; [15]): 0.3; Average Viability CFU/ml 50 min (Staphylococcus aureus [2]; [12]): 15000000 CFU/ml; Log Reduction 50 min (Staphylococcus aureus [2]; [12]): 0.3; enhancement of MPO microbicidal activity (in words) (Staphylococcus aureus [2]; amino acid 5 mM, MPO 38 U/ml, GO 33.3 U/ml, blood): highly active |
| C[C@@H](O)[C@H](N)C(=O)O [L-Threonine] | 0 | 23300000 CFU/ml | 7.3 | 7.1 | 7.3 | 6.7 | 7.1 | 5.5 | 7.3 | 7.3 |  |  | Average Viability CFU/ml 60 min (Staphylococcus aureus [2]; [9]): 630000 CFU/ml; Log 10 (CFU + 1) Survivors 60 min (Staphylococcus aureus [2]; [9]): 5.8; Log Reduction 60 min (Staphylococcus aureus [2]; [9]): 1.6; Average Viability CFU/ml 50 min (Staphylococcus aureus [2]; [11]): 1415000 CFU/ml; Log Reduction 50 min (Staphylococcus aureus [2]; [11]): 1.2 |
| C[C@H](O)[C@@H](N)C(=O)O [D-Threonine] | 0 | 20700000 CFU/ml | 7.3 | 6.8 | 7.3 | 6.7 | 7.1 | 5.1 | 7.4 | 5.0 |  |  | Average Viability CFU/ml 60 min (Staphylococcus aureus [2]; [6]): 815000 CFU/ml; Log 10 (CFU + 1) Survivors 60 min (Staphylococcus aureus [2]; [6]): 5.9; Log Reduction 60 min (Staphylococcus aureus [2]; [6]): 1.4; Average Viability CFU/ml 50 min (Staphylococcus aureus [2]; [15]): 2020000 CFU/ml; Log Reduction 50 min (Staphylococcus aureus [2]; [15]): 1.1 |
| N[C@H](CCC(=O)O)C(=O)O [D-Glutamic acid] |  | 26200000 CFU/ml |  |  |  |  |  |  |  |  |  |  | log reduction at 5000 µM (Staphylococcus aureus [1]): 0; Average Viability CFU/ml 60 min (Staphylococcus aureus [2]; [13]): 955000 CFU/ml; Log Reduction 60 min (Staphylococcus aureus [2]; [13]): 1.4 |
| CC(=O)C(=O)O [Pyruvic acid] | 0 | 22100000 CFU/ml |  |  |  |  |  |  |  |  |  |  | Average Viability CFU/ml 60 min (Staphylococcus aureus [2]; [6]): 4900000 CFU/ml; Log 10 (CFU + 1) Survivors 60 min (Staphylococcus aureus [2]; [6]): 6.7; Log Reduction 60 min (Staphylococcus aureus [2]; [6]): 0.6 |
| CC(C)[C@@H](N)C(=O)O [D-Valine] | 0.1 | 20900000 CFU/ml | 4.1 | 0.0 | 6.7 | 0.0 | 0.0 | 0.0 | 0.0 | 0.0 | 630000 CFU/ml | 1.6 | Average Viability CFU/ml 60 min (Staphylococcus aureus [2]; [14]): 0 CFU/ml; Log Reduction 60 min (Staphylococcus aureus [2]; [14]): 7.4; Average Viability CFU/ml 50 min (Staphylococcus aureus [2]; [16]): 630000 CFU/ml; Log Reduction 50 min (Staphylococcus aureus [2]; [16]): 1.6; Average Viability CFU/ml 50 min (Staphylococcus aureus [2]; [17]): 630000 CFU/ml; Log Reduction 50 min (Staphylococcus aureus [2]; [17]): 1.6 |
